This is an account of results in patent US7495027B2, “3-aryl-4-hydroxyfuranone compounds and the human and animal health use thereof” (Wyeth, priority 2003, dated 2009).

≈ marks a conversion by molar mass, not a printed value.

Sequence of E. coli UDP-N-acetylglucosamine enolpyruvoyl transferase, MurA (P0A749 whole entry): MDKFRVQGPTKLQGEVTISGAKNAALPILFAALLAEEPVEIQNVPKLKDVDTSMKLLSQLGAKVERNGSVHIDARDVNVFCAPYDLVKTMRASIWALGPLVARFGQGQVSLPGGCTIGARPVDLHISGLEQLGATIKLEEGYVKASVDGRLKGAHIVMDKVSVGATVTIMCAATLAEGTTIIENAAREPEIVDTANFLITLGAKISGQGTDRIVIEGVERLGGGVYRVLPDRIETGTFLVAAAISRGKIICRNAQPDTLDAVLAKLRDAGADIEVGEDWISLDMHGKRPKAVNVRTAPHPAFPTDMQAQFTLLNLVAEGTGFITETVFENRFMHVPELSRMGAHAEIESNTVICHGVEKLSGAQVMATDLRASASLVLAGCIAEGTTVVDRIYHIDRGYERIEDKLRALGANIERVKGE

The first assay concerns the target T1, S. aureus Uridine-diphosphate-N-acetylmuramoyl-L-alanine: D-glutamate liease, MurD (Staphylococcus aureus, UniProt Q2FZ92).
T1 sequence (Q2FZ92 1-449): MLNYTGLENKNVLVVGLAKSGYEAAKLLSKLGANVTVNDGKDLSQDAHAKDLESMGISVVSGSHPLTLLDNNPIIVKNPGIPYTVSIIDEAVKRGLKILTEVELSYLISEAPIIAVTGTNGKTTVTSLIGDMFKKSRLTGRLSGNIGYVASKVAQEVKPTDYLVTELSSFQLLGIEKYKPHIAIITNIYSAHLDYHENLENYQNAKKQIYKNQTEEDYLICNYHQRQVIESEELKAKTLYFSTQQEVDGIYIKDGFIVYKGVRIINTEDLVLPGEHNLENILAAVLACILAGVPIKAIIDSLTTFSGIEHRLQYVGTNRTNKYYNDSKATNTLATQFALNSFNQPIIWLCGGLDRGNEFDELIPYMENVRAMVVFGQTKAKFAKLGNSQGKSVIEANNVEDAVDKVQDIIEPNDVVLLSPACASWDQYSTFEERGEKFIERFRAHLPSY
Kind of assay: biochemical. The following applies: (S) S. aureus enzyme. Put shortly: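 MurD, which catalyses the fourth step of cell wall biosynthesis, was tested for inhibition by compounds. Compounds were made up as 10 mg/mL DMSO stocks and diluted to 100 μg/mL in 50 mM Tris/HCl, pH 8.5.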
On to `O=C1O/C(=C\C2CCCCC2)C(O)=C1c1ccc2ccccc2c1` [Example 51], for which the 50% inhibitory concentration (IC50) was more than 78 µM.
Still for that read-out and setting: next, `O=C1O/C(=C\c2ccc3ccccc3c2)C(O)=C1c1ccc2ccccc2c1` [Example 52]: 54.9 µM; `O=C1O/C(=C\c2ccc(-c3ccccc3)cc2)C(O)=C1c1ccc(Cl)cc1` [Example 53]: 42.7 µM.
Still for that read-out and setting: next, `O=C1O/C(=C\c2ccc3ccccc3c2)C(O)=C1c1ccc(Cl)cc1` [Example 54]: more than 71.7 µM; `O=C1O/C(=C\c2ccc3ccccc3c2)C(O)=C1c1cccc2ccccc12` [Example 56]: 52.1 µM.
On the same count and under the same terms, next, `O=C1O/C(=C\c2ccc(-c3ccccc3)cc2)C(O)=C1c1cc(Cl)cc(Cl)c1` [Example 67]: 19.5 µM; `O=C1O/C(=C\c2ccc(-c3ccccc3)cc2)C(O)=C1c1cccc(Cl)c1` [Example 69]: 18.7 µM.
For `O=C1O/C(=C\C2CCCCC2)C(O)=C1c1ccc(-c2ccccc2)cc1` [Example 100], inhibition was half-maximal at 69.3 µM (IC50).
Still for that read-out and setting: next, `O=C1O/C(=C\c2cccnc2)C(O)=C1c1ccc(-c2ccccc2)cc1` [Example 101]: more than 73.2 µM; `Cc1ccc(/C=C2\OC(=O)C(c3ccc(-c4ccccc4)cc3)=C2O)s1` [Example 104]: more than 69.4 µM.
On the same count and under the same terms, next, `O=C1O/C(=C\c2cccc(C(F)(F)F)c2)C(O)=C1c1ccc(-c2ccccc2)c(F)c1` [Example 106]: 37.5 µM.
For `O=C1O/C(=C\c2cccc(-c3cccc(Cl)c3)c2)C(O)=C1c1cccc(Cl)c1` [Example 134], 19.5 µM corresponded to half-maximal inhibition (IC50).

The next assay has as its system enterococci. The experiment in a line: Minimum inhibitory concentration, microdilution broth method, enterococci. In kind it is cell-based. The following applies: Enterococcus faecalis, E. faecalis GC 2242; Mueller-Hinton broth, 18-22 hours at 35° C.; read-out: MIC E. faecalis GC 2242. Put shortly:
(§1)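 Following NCCLS standard M7-A5, MICs were determined by microdilution in Mueller-Hinton broth, with 5% horse blood added for streptococci.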
(Dilution methods test growth across graded concentrations, often in twofold steps.)
`O=C1O/C(=C\C2CCCCC2)C(O)=C1c1ccc2ccccc2c1` [Example 51]: the MIC was 8 µg/mL (≈ 25 µM).
Still for that read-out and setting: next, `O=C1O/C(=C\c2ccc3ccccc3c2)C(O)=C1c1ccc2ccccc2c1` [Example 52]: 4 µg/mL (≈ 11 µM); `O=C1O/C(=C\c2ccc(-c3ccccc3)cc2)C(O)=C1c1ccc(Cl)cc1` [Example 53]: 4 µg/mL (≈ 10.7 µM).
On the same count and under the same terms, next, `O=C1O/C(=C\c2ccc3ccccc3c2)C(O)=C1c1ccc(Cl)cc1` [Example 54]: 4 µg/mL (≈ 11.5 µM).
The same measure, in the same setting: next, `O=C1O/C(=C\c2ccc3ccccc3c2)C(O)=C1c1cccc2ccccc12` [Example 56]: 8 µg/mL (≈ 22 µM); `O=C1O/C(=C\c2ccc(-c3ccccc3)cc2)C(O)=C1c1cc(Cl)cc(Cl)c1` [Example 67]: 0.5 µg/mL (≈ 1.22 µM); `O=C1O/C(=C\c2ccc(-c3ccccc3)cc2)C(O)=C1c1cccc(Cl)c1` [Example 69]: 0.5 µg/mL (≈ 1.33 µM).
In the case of `O=C1O/C(=C\C2CCCCC2)C(O)=C1c1ccc(-c2ccccc2)cc1` [Example 100], the MIC is more than 128 µg/mL.
For `O=C1O/C(=C\c2cccnc2)C(O)=C1c1ccc(-c2ccccc2)cc1` [Example 101], the MIC was determined as 64 µg/mL (≈ 187 µM).
The same measure, in the same setting: next, `Cc1ccc(/C=C2\OC(=O)C(c3ccc(-c4ccccc4)cc3)=C2O)s1` [Example 104]: 32 µg/mL (≈ 88.8 µM); `O=C1O/C(=C\c2cccc(C(F)(F)F)c2)C(O)=C1c1ccc(-c2ccccc2)c(F)c1` [Example 106]: 0.25 µg/mL (≈ 0.586 µM).
Still for that read-out and setting: next, `O=C1O/C(=C\c2cccc(-c3cccc(Cl)c3)c2)C(O)=C1c1cccc(Cl)c1` [Example 134]: 4 µg/mL (≈ 9.77 µM).

Still in this assay, the particulars now being: Enterococcus faecalis, E. faecalis GC 4555; Mueller-Hinton broth, 18-22 hours at 35° C.; read-out: MIC E. faecalis GC 4555.
With `O=C1O/C(=C\C2CCCCC2)C(O)=C1c1ccc2ccccc2c1` [Example 51], the MIC came out at 32 µg/mL (≈ 99.9 µM).
Still for that read-out and setting: next, `O=C1O/C(=C\c2ccc3ccccc3c2)C(O)=C1c1ccc2ccccc2c1` [Example 52]: 8 µg/mL (≈ 22 µM); `O=C1O/C(=C\c2ccc(-c3ccccc3)cc2)C(O)=C1c1ccc(Cl)cc1` [Example 53]: 8 µg/mL (≈ 21.3 µM); `O=C1O/C(=C\c2ccc3ccccc3c2)C(O)=C1c1ccc(Cl)cc1` [Example 54]: 32 µg/mL (≈ 91.7 µM).
The same measure, in the same setting: next, `O=C1O/C(=C\c2ccc3ccccc3c2)C(O)=C1c1cccc2ccccc12` [Example 56]: 32 µg/mL (≈ 87.8 µM); `O=C1O/C(=C\c2ccc(-c3ccccc3)cc2)C(O)=C1c1cc(Cl)cc(Cl)c1` [Example 67]: 2 µg/mL (≈ 4.89 µM).
Still for that read-out and setting: next, `O=C1O/C(=C\c2ccc(-c3ccccc3)cc2)C(O)=C1c1cccc(Cl)c1` [Example 69]: 0.5 µg/mL (≈ 1.33 µM).
Consider `O=C1O/C(=C\C2CCCCC2)C(O)=C1c1ccc(-c2ccccc2)cc1` [Example 100], for which the MIC was more than 128 µg/mL.
Regarding `O=C1O/C(=C\c2cccnc2)C(O)=C1c1ccc(-c2ccccc2)cc1` [Example 101], the MIC was more than 128 µg/mL.
Same read-out and setting: next, `Cc1ccc(/C=C2\OC(=O)C(c3ccc(-c4ccccc4)cc3)=C2O)s1` [Example 104]: 64 µg/mL (≈ 178 µM); `O=C1O/C(=C\c2cccc(C(F)(F)F)c2)C(O)=C1c1ccc(-c2ccccc2)c(F)c1` [Example 106]: 1 µg/mL (≈ 2.35 µM); `O=C1O/C(=C\c2cccc(-c3cccc(Cl)c3)c2)C(O)=C1c1cccc(Cl)c1` [Example 134]: 8 µg/mL (≈ 19.5 µM).

The next assay concerns the target E. coli UDP-N-acetylglucosamine enolpyruvoyl transferase, MurA (Escherichia coli, UniProt P0A749). Kind of assay: biochemical. The following applies: (E) E. coli enzyme. Put shortly:
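Compound in DMSO/water pre-incubated 10 min at 37° C with enzyme in 50 mM Tris/HCl pH 8.0, 5 mM DTT, 20% glycerol. After Tris/BME and assay buffer were added, OD340 was read at start. Reaction ran 1 hr at 37° C, then stop solution was added with 30 min colour development.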
Take `O=C1O/C(=C\C2CCCCC2)C(O)=C1c1ccc2ccccc2c1` [Example 51]: the IC50 was more than 78 µM.
The same measure, in the same setting: next, `O=C1O/C(=C\c2ccc3ccccc3c2)C(O)=C1c1ccc2ccccc2c1` [Example 52]: more than 68.6 µM; `O=C1O/C(=C\c2ccc(-c3ccccc3)cc2)C(O)=C1c1ccc(Cl)cc1` [Example 53]: more than 66.7 µM; `O=C1O/C(=C\c2ccc3ccccc3c2)C(O)=C1c1ccc(Cl)cc1` [Example 54]: more than 71.7 µM.
The same measure, in the same setting: next, `O=C1O/C(=C\c2ccc3ccccc3c2)C(O)=C1c1cccc2ccccc12` [Example 56]: more than 68.6 µM; `O=C1O/C(=C\c2ccc(-c3ccccc3)cc2)C(O)=C1c1cc(Cl)cc(Cl)c1` [Example 67]: 7.33 µM.
On the same count and under the same terms, next, `O=C1O/C(=C\c2ccc(-c3ccccc3)cc2)C(O)=C1c1cccc(Cl)c1` [Example 69]: 21.3 µM; `O=C1O/C(=C\C2CCCCC2)C(O)=C1c1ccc(-c2ccccc2)cc1` [Example 100]: more than 72.2 µM.
The molecule `O=C1O/C(=C\c2cccnc2)C(O)=C1c1ccc(-c2ccccc2)cc1` [Example 101] showed an IC50 of 67.4 µM.
The same measure, in the same setting: next, `Cc1ccc(/C=C2\OC(=O)C(c3ccc(-c4ccccc4)cc3)=C2O)s1` [Example 104]: more than 69.4 µM; `O=C1O/C(=C\c2cccc(C(F)(F)F)c2)C(O)=C1c1ccc(-c2ccccc2)c(F)c1` [Example 106]: 21.1 µM.
For `O=C1O/C(=C\c2cccc(-c3cccc(Cl)c3)c2)C(O)=C1c1cccc(Cl)c1` [Example 134], the “MurA IC50” value is 5 (E) μg/mL.

The test system of a further assay is staphylococci. Kind of assay: Minimum inhibitory concentration, microdilution broth method, staphylococci. In kind it is cell-based. The following applies: S. aureus GC 4543; Mueller-Hinton broth, 18-22 hours at 35° C. A digest of the protocol:
as §1
Consider `O=C1O/C(=C\c2ccc(-c3ccccc3)cc2)C(O)=C1c1cc(Cl)cc(Cl)c1` [Example 67], for which the “MIC S. aureus GC 4543” value was found to be 0.5 µg/mL (≈ 1.22 µM).

Still in this assay, the particulars now being: Staphylococcus aureus, S. aureus GC 1131; Mueller-Hinton broth, 18-22 hours at 35° C.; read-out: MIC S. aureus GC 1131.
Turning to `O=C1O/C(=C\C2CCCCC2)C(O)=C1c1ccc2ccccc2c1` [Example 51], the MIC was more than 128 µg/mL.
As to `O=C1O/C(=C\c2ccc3ccccc3c2)C(O)=C1c1ccc2ccccc2c1` [Example 52], the MIC turned out to be 16 µg/mL (≈ 43.9 µM).
Same read-out and setting: next, `O=C1O/C(=C\c2ccc(-c3ccccc3)cc2)C(O)=C1c1ccc(Cl)cc1` [Example 53]: 16 µg/mL (≈ 42.7 µM); `O=C1O/C(=C\c2ccc3ccccc3c2)C(O)=C1c1ccc(Cl)cc1` [Example 54]: 8 µg/mL (≈ 22.9 µM).
For the molecule `O=C1O/C(=C\c2ccc3ccccc3c2)C(O)=C1c1cccc2ccccc12` [Example 56], the minimum inhibitory concentration (MIC) came to 16 µg/mL (≈ 43.9 µM).
Still for that read-out and setting: next, `O=C1O/C(=C\c2ccc(-c3ccccc3)cc2)C(O)=C1c1cc(Cl)cc(Cl)c1` [Example 67]: 1 µg/mL (≈ 2.44 µM); `O=C1O/C(=C\c2ccc(-c3ccccc3)cc2)C(O)=C1c1cccc(Cl)c1` [Example 69]: 2 µg/mL (≈ 5.34 µM).
Same read-out and setting: next, `O=C1O/C(=C\C2CCCCC2)C(O)=C1c1ccc(-c2ccccc2)cc1` [Example 100]: more than 128 µg/mL; `O=C1O/C(=C\c2cccnc2)C(O)=C1c1ccc(-c2ccccc2)cc1` [Example 101]: more than 128 µg/mL; `Cc1ccc(/C=C2\OC(=O)C(c3ccc(-c4ccccc4)cc3)=C2O)s1` [Example 104]: 16 µg/mL (≈ 44.4 µM).
On the same count and under the same terms, next, `O=C1O/C(=C\c2cccc(C(F)(F)F)c2)C(O)=C1c1ccc(-c2ccccc2)c(F)c1` [Example 106]: 2 µg/mL (≈ 4.69 µM); `O=C1O/C(=C\c2cccc(-c3cccc(Cl)c3)c2)C(O)=C1c1cccc(Cl)c1` [Example 134]: more than 128 µg/mL.

The assay is the same for the next values; noted with them: Staphylococcus aureus, S. aureus GC 4543; Mueller-Hinton broth, 18-22 hours at 35° C.; read-out: MIC S. aureus GC 4543.
Regarding `O=C1O/C(=C\C2CCCCC2)C(O)=C1c1ccc2ccccc2c1` [Example 51], the MIC came out at 16 µg/mL (≈ 49.9 µM).
On the same count and under the same terms, next, `O=C1O/C(=C\c2ccc3ccccc3c2)C(O)=C1c1ccc2ccccc2c1` [Example 52]: 16 µg/mL (≈ 43.9 µM); `O=C1O/C(=C\c2ccc(-c3ccccc3)cc2)C(O)=C1c1ccc(Cl)cc1` [Example 53]: 16 µg/mL (≈ 42.7 µM); `O=C1O/C(=C\c2ccc3ccccc3c2)C(O)=C1c1ccc(Cl)cc1` [Example 54]: 16 µg/mL (≈ 45.9 µM).
Turning to `O=C1O/C(=C\c2ccc3ccccc3c2)C(O)=C1c1cccc2ccccc12` [Example 56], the MIC worked out at 32 µg/mL (≈ 87.8 µM).
Turning to `O=C1O/C(=C\c2ccc(-c3ccccc3)cc2)C(O)=C1c1cccc(Cl)c1` [Example 69], the MIC stood at 1 µg/mL (≈ 2.67 µM).
Turning to `O=C1O/C(=C\C2CCCCC2)C(O)=C1c1ccc(-c2ccccc2)cc1` [Example 100], the MIC was more than 128 µg/mL.
`O=C1O/C(=C\c2cccnc2)C(O)=C1c1ccc(-c2ccccc2)cc1` [Example 101]: the minimum inhibitory concentration (MIC) was more than 128 µg/mL.
Same read-out and setting: next, `Cc1ccc(/C=C2\OC(=O)C(c3ccc(-c4ccccc4)cc3)=C2O)s1` [Example 104]: 32 µg/mL (≈ 88.8 µM); `O=C1O/C(=C\c2cccc(C(F)(F)F)c2)C(O)=C1c1ccc(-c2ccccc2)c(F)c1` [Example 106]: 2 µg/mL (≈ 4.69 µM).
Still for that read-out and setting: next, `O=C1O/C(=C\c2cccc(-c3cccc(Cl)c3)c2)C(O)=C1c1cccc(Cl)c1` [Example 134]: 1 µg/mL (≈ 2.44 µM).

Usually IC50 stands for the concentration at which inhibition is half-maximal. High values mean lower potency, low ones higher potency. Broadly, the MIC is the lowest concentration found to suppress growth.
